According to US20150182667A1, “Composition with Biofilm Dispersal Agents” (Vanderbilt University, priority 2012, published 2015):
Converted amounts (≈) assume the structure as drawn. Where two headings read alike, the source gives them in different places.

What was measured:
[1] = system: planktonic P. aeruginosa clinical strains (18189, 418); test: MIC by CLSI broth microdilution, planktonic bacteria; format: cell-based, Pseudomonas aeruginosa; settings: * = with 5 mM D-AA; for MIC: Pseudomonas aeruginosa
Protocol: Overnight cultures of bacterial strains were diluted to a final concentration of 5×10^5 CFU/ml in MHB-II. The resulting bacterial suspension was aliquoted (100 μL) into polystyrene round-bottom 96-well plates containing 100 μL of a 2× concentration of a previously serially diluted (1:2) antibiotic. Each antimicrobial tested was serially diluted 10 times. Following the addition of bacteria, the microtiter plate was covered and was incubated under stationary conditions at 37° C. in the presence of 1× antibiotics. […] MICs of antibiotics were determined in triplicate according to the Clinical and Laboratory Standards Institute (CLSI) broth microdilution as described by the performance standards for antimicrobial susceptibility testing (M100-S22, January 2012).

[2] = system: biofilm derived P. aeruginosa clinical strains (18189, 418); test: Biofilm susceptibility, Calgary Biofilm device (MBEC plates): MBIC and viable CFU; format: cell-based, Pseudomonas aeruginosa; settings: * = with 5 mM D-AA; for Biofilm (MBIC) 418: P. aeruginosa 418 biofilm; for Biofilm (MBIC) 18189: P. aeruginosa 18189 biofilm
Protocol: Biofilm susceptibility to antimicrobial agents in the presence and absence of D-AA was determined using the Calgary Biofilm device. Briefly, biofilms from overnight cultures were established as above on individual pegs of the minimum biofilm eradication concentration (MBEC) plates (Innovotech, Canada) with agitation for 48 h at 37° C. Following incubation, the lid with pegs was removed from the incubation plate, washed by re-suspending pegs into plate with wells containing 200 μl of 1×PBS, then placed into a 96-well challenge plate containing pre-diluted antibiotics with or without an […] for an additional 24 h at 37° C. Following challenge plates were washed, and the attached viable cells on PEGs within the biofilm were determined by plating serial dilutions onto blood agar plates (Remel). Corresponding minimal biofilm inhibitory concentration (MBIC) was also determined by measuring the optical density in individual wells of the challenge plate at 600 nm. The lowest concentration of antibiotic for which an optical density of <0.100 was recorded as the MBIC. For each antibiotic, the MBIC was determined in the presence or absence of a mixture of D-AA (D-Phenylalanine, D-Methionine, and D-Tryptophan) at an equimolar concentration of 5 mM. Three independent experiments were performed for each of these assays, with a minimum of 3 replicates.

[3] = system: S. aureus clinical isolate biofilms; test: Biofilm dispersal and prevention, crystal violet 96-well assay (Example 1); format: cell-based, Staphylococcus aureus; settings: 5 mM; for biofilm dispersal against panel of clinical isolates (biofilm biomass OD570): S. aureus clinical isolates, FIGS. 3A, 3C; for biofilm dispersal in pre-screening of eight D-AAs: pre-formed S. aureus biofilms, FIG. 1
Protocol: (§1) Biofilm formation was performed under static conditions in polystyrene 96-well plates (Corning, Inc., Corning, N.Y.). Briefly, overnight bacterial cultures were diluted to an OD600 of 0.1 in CA-MHB and 10 μL was added to individual wells filled with 190 μl of media and incubated at 37° C. for 48 h without shaking for biofilm growth. Following incubation, culture media was removed and 200 μL media containing individual D-AA at concentrations of 5 mM-1 nM was added. Plates were incubated for an additional 24 h at 37° C. After treatment, plates were gently washed with 1× phosphate buffered saline (PBS; pH 7.4) to remove non-adherent bacteria. Biofilms (i.e. attached cells) were then stained with 0.1% (w/v) crystal violet for 10 min, washed, followed by solubilization of crystal violet with 33% (v/v) acetic acid for 10 min. Biofilm biomass was determined by measuring the absorbance at 570 nm using a microtiter plate reader. For assays measuring the ability of D-AA to block biofilm formation, cells were grown under biofilm conditions as above in the presence of media containing D-AA. Three independent experiments with a minimum of 4 replicates were performed for each experimental assay. Representative images of the plates of CV stained biofilms following treatment with D-AA, prior to solubilization, were taken using a digital camera.

[4] = system: P. aeruginosa clinical isolate biofilms; test: as above; format: cell-based, Pseudomonas aeruginosa; settings: 5 mM; for biofilm dispersal against panel of clinical isolates (biofilm biomass OD570): P. aeruginosa clinical isolates, FIGS. 3A, 3C; for biofilm dispersal in pre-screening of eight D-AAs: pre-formed P. aeruginosa biofilms, FIG. 1
Protocol: as §1

human dermal fibroblasts = test: CellTiter-Fluor cell viability assay; format: cell-based
Protocol: (§2) To observe the cellular viability of PUR/D-AA composites, human dermal fibroblasts and human osteoblasts (PromoCell) were maintained in Dulbecco's Modified Eagle Medium (DMEM; Invitrogen) supplemented with 10% Fetal Bovine Serum (FBS) and 1× penicillin/streptomycin. Human epidermal keratinocytes (HEK-001; ATCC CRL-2404) were maintained in Keratinocyte-serum free media (GIBCO) supplemented with 5 ng/mL human recombinant EGF and 2 mM L-glutamine. All cell lines were cultured at 37° C. in 5% CO2. Prior to each assay cells were seeded at 100% confluence in black-clear bottom 96-well plates. After 24 h, cells were exposed to media containing D-AA, 50 mM-1 nM, and incubated for 24-48 h at 37° C. in 5% CO2. Following treatment, cells were washed, resuspended in 100 μL of sterile saline and viability was determined using the CellTiter-Flour Cell Viability Assay (Promega) following the manufacturer's instructions. Viability assays were performed in triplicate with a minimum of 3 replicates. Viability was reported as the percentage of viable cells relative to untreated controls.
(§3) Human dermal fibroblasts and osteoblasts (PromoCell, Heidelberg, Germany) were maintained in Dulbecco's Modified Eagle Medium (DMEM; Invitrogen, Grand Island, N.Y.) supplemented with 10% Fetal Bovine Serum (FBS) and 1× penicillin/streptomycin at 37° C. in 5% CO2. Prior to each assay, cells were seeded at 100% confluence in black-clear bottom 96-well plates. After 24 h cells were exposed to media containing D-AA (1 nM-50 mM) and incubated for 24 h. Following treatment, cells were washed, re-suspended in 100 μL of sterile saline, and assessed for viability using the CellTiter-Fluor Cell Viability Assay (Promega, Madison, Wis.) following the manufacturer's instructions. Viability assays were performed in triplicate with a minimum of four replicates. Viability was reported as the percentage of viable cells relative to untreated controls.

[5] = system: S. aureus clinical isolates biofilms; test: Biofilm dispersal and prevention, crystal violet assay (Example 3); format: cell-based; settings: for dispersal of established biofilms (biofilm biomass): panel of clinical isolates of methicillin-resistant S. aureus (n=5), 5 mM, 24 h, FIGS. 8A, 8C; for biofilm dispersal in pre-screening of eight individual D-AAs: pre-formed biofilms of four clinical isolates, 0.001-50 mM, FIG. 7
Protocol: Like in Example 1, biofilm formation was assessed under static conditions using polystyrene 96-well plates (Corning, Inc.). Overnight bacterial cultures were diluted to an OD600 of 0.1 in TSB (˜10^7 CFU/mL), and 20 μL were added to individual wells filled with 180 μL of media and incubated at 37° C. for 48 h. To assess the biofilm dispersal activity of D-AAs, the culture medium from biofilms was removed after 48 h and 200 μL fresh medium containing either an individual D-AA or an equimolar mixture of D-AAs (1:1:1: D-Met:D-Pro:D-Trp) were added at the indicated concentrations. After treatment with D-AA(s) for 24 h, plates were gently washed with 1× phosphate buffered saline (PBS) to remove unattached cells, stained with 0.1% (w/v) crystal violet (Sigma Aldrich) for 10 min, rinsed with PBS, and then solubilized with 80% (v/v) ethanol. Biofilm biomass was determined by measuring the absorbance of solubilized stain at 570 nm using a microtiter plate reader. For assays measuring the ability of D-AA to block biofilm formation, cells were grown under biofilm conditions as above in the presence of media containing D-AAs. Representative images of the plates of CV-stained biofilms following treatment with D-AA prior to solubilization were taken using a digital camera. All assays were repeated in triplicate with a minimum of four technical replicates.

[6] = Release of D-AAs from PUR scaffolds in PBS (HPLC); format: physicochemical; settings: for burst release: day 1, PUR scaffold with 10 wt % 1:1:1 D-Met:D-Pro:D-Trp; for b parameter of Weibull model: fit of D-AA release data
Protocol: Also, kinetic release assays were performed on the PUR scaffolds by incorporating 10 wt % of a 1:1:1 mixture of D-Tr:D-Pro:D-Met incubated in PBS for up to 8 weeks. The medium was be sampled twice weekly and analyzed for D-AAs by HPLC.
PUR scaffolds incorporating 10 wt % of a 1:1:1 mixture of D-Met:D-Pro:D-Trp were incubated in PBS at 37° C. under static conditions for up to 8 weeks. This mixture was evaluated in vitro, in vivo and in the release kinetics tests to account for potential interactions between D-AAs during release. The medium was sampled on days 1, 2, 4, 7, 10, 14, 21, and 28 and analyzed for D-AAs by HPLC using a system equipped with a Waters 1525 binary pump and a 2487 Dual-Absorbance Detector at 200 nm. Samples of released D-AAs were eluted through an Atlantis HILIC Silica column (5 μm particle size, 4.6 mm diameter×250 mm length) using an isocratic mobile phase flowing at 1 mL/min. The mobile phase contained 2.5 mM potassium dihydrogen phosphate with pH=2.85 (A) and Acetonitrile (B) at a ratio of A25:B75. The column oven temperature was maintained at 30° C. Sample concentration was determined in reference to an external standard curve using the Waters Breeze system. Standard curves were prepared in the following concentration ranges: (1) 7.8 μg/mL to 1 mg/mL for D-Met and D-Pro and (2) […] to 100 μg/mL for D-Trp.

human osteoblasts = test: CellTiter-Fluor cell viability assay; format: cell-based; settings: 24 h
Protocol: as §2, §3

S. aureus Xen 36A = test: Contaminated 6-mm excisional cutaneous wounds in mice; format: in vivo, C57BL/6 mice; settings: 2×10^6 CFU, collagen gel with 5% D-Trp, 1 and 3 days, not shown
Protocol: 6-mm excisional wounds in C57BL/6 mice (6-8 weeks), which had previously been shaved and sterilized, were made. The mice were contaminated with 2×10^6 or 2×10^7 CFU S. aureus Xen 36A (Perkin Elmer, Waltham, Mass.). Approximately 2-3 minutes following exposure to bacteria, collagen gels (hydrogel, HG) with and without 5% D-Trp were applied to the wounds for about 5 minutes before applying a Tegaderm bandage (3M, St. Paul, Minn.). Wounds were monitored daily for up to 3 days. At 1 and 3 days post-infection mice were evaluated using the IVIS (to visualized bioluminescent bacteria within wounds) and the wound tissues were harvested, homogenized, and plated on blood agar to enumerate bacteria within wound (CFU/mL/g tissue).

[7] = Release of D-Trp from collagen gel; format: physicochemical; settings: collagen gel with 5% D-Trp
[8] = P. aeruginosa 418, read-out: Planktonic (MIC) 418
[9] = P. aeruginosa 18189, read-out: Planktonic (MIC) 18189
[10] = PUR scaffold with 10 wt % D-AA mixture, PBS 37° C.

Planktonic (MIC) 418 ([1]; P. aeruginosa 418)	Planktonic (MIC) 18189 ([1]; P. aeruginosa 18189)	MIC [1, 8]	MIC [1, 9]	Structure (SMILES)	Biofilm (MBIC) 418 [2]	Biofilm (MBIC) 18189 [2]	biofilm dispersal against panel of clinical isolates (biofilm biomass OD570) [3]	biofilm dispersal in pre-screening of eight D-AAs [3]	biofilm dispersal against panel of clinical isolates (biofilm biomass OD570) [4]	biofilm dispersal in pre-screening of eight D-AAs [4]	dispersal of established biofilms (biofilm biomass) [5]	biofilm dispersal in pre-screening of eight individual D-AAs [5]	burst release ([6]; PBS 37° C.)	b parameter of Weibull model [6]	other results
64 µg/mL	128 µg/mL	128 µg/mL (≈ 428 µM)	64 µg/mL (≈ 214 µM)	C[C@@H](O)[C@H]1C(=O)N2C(C(=O)O)=C(SCCN=CN)C[C@H]12 [IMI, Imipenem]	>128 µg/mL	>128 µg/mL									
16 µg/mL	16 µg/mL	16 µg/mL (≈ 27.3 µM)	16 µg/mL (≈ 27.3 µM)	NCC[C@H](O)C(=O)N[C@@H]1C[C@H](N)[C@@H](O[C@H]2O[C@H](CN)[C@@H](O)[C@H](O)[C@H]2O)[C@H](O)[C@H]1O[C@H]1O[C@H](CO)[C@@H](O)[C@H](N)[C@H]1O [AMK, Amikacin]	>256 µg/mL	>256 µg/mL									
				CSCC[C@@H](N)C(=O)O [D-Met, D-methionine]			capable of significantly dispersing biofilm formation	relatively more effective at dispersing biofilms	capable of significantly dispersing biofilm formation	relatively more effective at dispersing biofilms	effective at dispersing established biofilms	effective at dispersing biofilms	60%	0.56	cytotoxicity (human dermal fibroblasts; human fibroblasts, higher concentrations): cytotoxicity was also observed; cumulative release by day 14 [6, 10]: ~100%
				N[C@H](Cc1c[nH]c2ccccc12)C(=O)O [D-Trp, D-tryptophan]			capable of significantly dispersing biofilm formation	relatively more effective at dispersing biofilms	capable of significantly dispersing biofilm formation	relatively more effective at dispersing biofilms	effective at dispersing established biofilms	effective at dispersing biofilms	25%	0.21	cytotoxicity (human dermal fibroblasts; dermal fibroblasts, 50 and 25 mM, 24 h): toxic; viability (percentage of viable cells relative to untreated controls) (human dermal fibroblasts; dermal fibroblasts, concentrations exceeding 12.5 mM, 24 h): ~60%; cytotoxicity (human dermal fibroblasts; dermal fibroblasts, effective range 1-5 mM, 24 h): minimal cytotoxicity; cytotoxicity (human osteoblasts; 50 and 25 mM): toxic; viability (percentage of viable cells relative to untreated controls) (human osteoblasts; concentrations exceeding 12.5 mM): ~60%; cytotoxicity (human osteoblasts; effective range 1-5 mM): minimal cytotoxicity; fraction released at 4 weeks ([6]; PUR scaffold with 10 wt % D-AA mixture): less than 40%; cumulative release by day 28 [6, 10]: 44%; wound contamination (bioluminescence imaging and bacterial counts) (S. aureus Xen 36A): reduced contamination; release in 1 day [7]: about 80%; time to complete release [7]: ≤ 3 days
